The text below walks through data of publication PMC5465826 (Research in Pharmaceutical Sciences, 2017).

For data set [1] the following is noted: humans, 5 g oral dose of a botanical mixture of 7 herbs; ref [28]; cited from earlier work.
The format of data set [2] is in vivo, rat.
For data set [3] the following is noted: intravenous 20 mg/kg, achiral, approximate; ref [25][26]; cited from earlier work.
For data set [4] the following is noted: ref [18][19][21][25][26][27], cited from earlier work.
Setting [5] is: rat serum, IV 20 mg/kg racemic liquiritigenin, mean ± SEM, n = 4, 20 mg/kg.
Where [6] appears, read: oral, given alone or in a mixture (exact dose unknown), approximate.

“And” between values parts separate entries of the source, which are not always exact repeats. Identical values can stand only once. Like-named read-outs stand apart in the source and are kept apart here.

With `O=C1C[C@@H](c2ccc(O)cc2)Oc2cc(O)ccc21` [S-liquiritigenin], the “fraction excreted unchanged in the urine (fe %)” value in data set [1] is reported as 36.2 ± 19.0%.

As usually defined, the Vss is the apparent volume that relates the amount in the body to the concentration in plasma or blood. By AUC is commonly meant the area under the concentration-time curve, a measure of exposure. With `O=C1C[C@@H](c2ccc(O)cc2)Oc2cc(O)ccc21` [liquiritigenin], the “time liquiritigenin could be measured in serum” value in data set [2] (rat serum) is on record as “only an hour”. In addition, in data set [2] (setting [5]), the t1/2 serum is 12 to 30 min and 15 to 32.4 min and 15 to 25.8 min. For the same compound, the “time liquiritigenin could be measured (detected) in urine” value in data set [2] (rat urine) is recorded as “up to 70 h”. The Vss in data set [2] (rat, IV 20 mg/kg racemic liquiritigenin, mean ± SEM, n = 4, 20 mg/kg) fell in the range of 2.7 to 4.6 L/kg. Besides, in data set [3], the AUC is 290 to 410 µg·min/mL, the clearances is 50 to 70 mL/min/kg and the plasma half-lives is 5 to 8 min. In addition, the bioavailability in data set [4] (Kang, et al., oral doses of 20-50 mg/kg) is 3-7%. In data set [4] (setting [6]), the AUC was 19 to 6594 ng·h/mL and the plasma half-lives was 3 to 11 h.

As for `O=C1C[C@H](c2ccc(O)cc2)Oc2cc(O)ccc21` [R-liquiritigenin], the t1/2 serum in data set [2] (setting [5]) was determined as 32.59 ± 4.26 min. The “fraction excreted unchanged in the urine (fe %)” value in data set [1] is listed as 50.9 ± 21.6%.
